For series [1], the system named is Jurkat. Kind of series: Induction of apoptosis in human Jurkat T cells overexpressing Bcl2 assessed as cell viability at 30 ug/ml after 36 hrs by MTT assay. The following applies: read-out: Activity. In general terms: Formazan colour is commonly taken as a measure of viable cells.
Series [2] concerns Jurkat. Kind of series: Induction of apoptosis in human Jurkat T cells overexpressing Neo assessed as cell viability at 30 ug/ml after 36 hrs by MTT assay. The settings on record: read-out: Activity.
In series [3] the test system is Jurkat. Kind of series: Cytotoxicity against human Jurkat T cells after 36 hrs by MTT assay.
Series [4] in a line: Cytotoxicity against human PHA-stimulated T cells after 36 hrs by MTT assay. The settings on record: T-cell.
Series [5] in a line: Cytotoxicity against human normal peripheral T cells after 36 hrs by MTT assay. The settings on record: T-cell.
Series [6] relates to Jurkat. Kind of series: Cytotoxicity against human Jurkat T cells assessed as cell viability at 60 ug/ml after 36 hrs by MTT assay relative to control. The settings on record: read-out: Activity.
The test system of series [7] is Jurkat. Kind of series: Cytotoxicity against human Jurkat T cells assessed as cell viability at 30 ug/ml after 36 hrs by MTT assay relative to control. The settings on record: read-out: Activity.
Series [8] is described as follows: Cytotoxicity against human PHA-stimulated T cells assessed as cell viability at 60 ug/ml after 36 hrs by MTT assay relative to control. The settings on record: read-out: Activity.
A short description of series [9]: Cytotoxicity against human PHA-stimulated T cells assessed as cell viability at 30 ug/ml after 36 hrs by MTT assay relative to control. The following applies: read-out: Activity.
Series [10] in a line: Cytotoxicity against human normal peripheral T cells assessed as cell viability at 60 ug/ml after 36 hrs by MTT assay relative to control.
In series [11] the test system is Jurkat. Kind of series: cells. The settings on record: Homo sapiens, 36 h, read-out: Activity.
Description: Induction of apoptosis in human Jurkat T cells overexpressing Bcl2 assessed as cell viability at 15 ug/ml after 36 hrs by MTT assay
In series [12] the test system is Jurkat. Kind of series: cells. The settings on record: Homo sapiens, 36 h, read-out: Activity. The source holds these as a separate data set.
Description: Induction of apoptosis in human Jurkat T cells overexpressing Bcl2 assessed as cell viability at 7.5 ug/ml after 36 hrs by MTT assay
Series [13] deals with Jurkat. Kind of series: cells. The following applies: Homo sapiens, 36 h, read-out: Activity. This is another data set of the same source.
Description: Induction of apoptosis in human Jurkat T cells overexpressing Neo assessed as cell viability at 15 ug/ml after 36 hrs by MTT assay
For series [14], the system named is Jurkat. Kind of series: cells. The following applies: Homo sapiens, 36 h, read-out: Activity. The source holds these as a separate data set.
Description: Induction of apoptosis in human Jurkat T cells overexpressing Neo assessed as cell viability at 7.5 ug/ml after 36 hrs by MTT assay
Series [15] has as its system Jurkat. Kind of series: cells. The settings on record: Homo sapiens, 36 h, read-out: Activity. The source holds these as a separate data set.
Description: Cytotoxicity against human Jurkat T cells assessed as cell viability at 15 ug/ml after 36 hrs by MTT assay relative to control
Another series is described as follows: cells. The following applies: Homo sapiens, T-cell, 36 h, read-out: Activity.
Series [16] has as its system Jurkat. Kind of series: Induction of microtubule damage in human Jurkat T cells overexpressing Bcl2 after 36 hrs by immunostaining method. Type of series: cell-based.
Series [17] relates to Jurkat. Kind of series: Induction of microtubule damage in human Jurkat T cells overexpressing Neo after 36 hrs by immunostaining method. Type of series: cell-based.
The test system of series [18] is Jurkat. Kind of series: Induction of apoptosis in human Jurkat T cells overexpressing Bcl2 assessed as cellular protrusions after 36 hrs by light microscopy. Type of series: functional, cell-based.
Series [19] deals with Jurkat. Kind of series: Induction of apoptosis in human Jurkat T cells overexpressing Neo assessed as cellular protrusions after 36 hrs by light microscopy. The series is classed as functional, cell-based.
The test system of series [20] is Jurkat. Kind of series: Induction of apoptosis in human Jurkat T cells overexpressing Bcl2 after 36 hrs by flow cytometry. The series is classed as functional, cell-based. On the technique in general: A flow cytometer gives signals particle by particle.
Series [21] concerns Jurkat. Kind of series: Induction of apoptosis in human Jurkat T cells overexpressing Neo after 36 hrs by flow cytometry. The series is classed as functional, cell-based.
The subject of series [22] is Jurkat. Kind of series: Induction of cell cycle arrest in human Jurkat T cells overexpressing Bcl2 assessed as G2/M phase cells after 36 hrs by flow cytometry (reference value: 2.4%). The series is classed as functional.
The test system of series [23] is Jurkat. Kind of series: Induction of cell cycle arrest in human Jurkat T cells overexpressing Neo assessed as G2/M phase cells after 36 hrs by flow cytometry (reference value: 4.7%). Type of series: functional.

The structures appear in SMILES notation. In brackets after ≈: the same amount, converted by molar mass. Activity calls are given as the source filed them. The calls are words filed in the database; no cut-off is given here. Where only a bound is given, the exact number is not on record here.

What is called IC50 is the concentration needed to halve the response being measured. High values mean weaker potency in that assay, low ones greater potency in that assay. `CCOC(C)(C)/C=C1/C=C(C(=O)O)C(O)CO1` (configuration not stated) [ARUNCIN B]: the viability at 30 µg/mL worked out at 61.2% in the series with Jurkat [1], 44.9% in the series with Jurkat [2], 36.1% with Jurkat [7] and 68.5% in series [9]. Besides, the IC50 is 22 µg/mL (≈ 90.8 µM) in the series with Jurkat [3], 49 µg/mL (≈ 202 µM) in series [4] and more than 60 µg/mL in series [5]. Moreover, the viability at 60 µg/mL in the series with Jurkat [6] turned out to be 24.5%; in [8], 25%. The viability at 36 h, 60 ug/ml in [10] stood at 63.8%. The viability at 15 µg/mL was 71.5% in the series with Jurkat [11], 57.4% with Jurkat [13], 67.7% in the series with Jurkat [15] and 85.9% in “cells”. For the same compound, the viability at 7.5 µg/mL is 81.5% with Jurkat [12] and 82% with Jurkat [14].

As to `O=c1c(-c2ccc(O)cc2)coc2cc(O)cc(O)c12` [GENISTEIN], the result in the series on Jurkat [16], in the series with Jurkat [17], in the series with Jurkat [18], in the series on Jurkat [19] and with Jurkat [20] was inactive. In the series with Jurkat [21], the result was Active. The Activity in the series on Jurkat [22] worked out at 6.7%; with Jurkat [23] it was 35%.

Turning to `COC(=O)Nc1nc2cc(C(=O)c3cccs3)ccc2[nH]1` [NOCODAZOLE], the result in the series on Jurkat [16], in the series with Jurkat [17], with Jurkat [18], with Jurkat [19] and in the series on Jurkat [21] was Active. The result in the series on Jurkat [20] was inactive. Besides, the Activity with Jurkat [22] was found to be 5.6%; with Jurkat [23] it was 40.3%.

For the origin of these results see ChEMBL document CHEMBL2203108, “Induction of microtubule-damage, mitotic arrest, Bcl-2 phosphorylation, Bak activation, and mitochondria-dependent caspase cascade is involved in human Jurkat T-cell apoptosis by aruncin B from Aruncus dioicus var. kamtschaticus” (Bioorg Med Chem Lett, 2012).
